One assay addresses T1, bovine thrombin (Bos taurus, UniProt P00735).
T1 construct: bovine thrombin (from Sigma); purchased Sigma
As to the kind of experiment: thrombin assay, hydrolysis of structure (11b) as proteolytic substrate. Format: biochemical. The conditions noted are these: for kcat/KM (thrombin): bovine thrombin, 37° C. As for the experimental part: (§1) Both the thrombin and Factor VII assays of this experiment were carried out at 37° C. using a Hitachi UV/Vis spectrophotometer (model U-3000). Structure (11b) was dissolved in deionized water. The concentration was determined from the absorbance at 342 nm. […] Initial velocities were calculated from the initial linear portion of the reaction progress curve. Kinetic parameters were determined by unweighted nonlinear least-squares fitting of the simple Michaelis-Menten equation to the experimental data using GraFit (Version 3.0, Erithacus Software Limited).
For the thrombin assay, experiments were performed in pH 8.4 Tris buffer (Tris, 0.05M; NaCl, 0.15M). 6.4 NIH units of bovine thrombin (from Sigma) were dissolved into 10 ml of the assay buffer to yield 10 nM thrombin solution. […] The first two minutes of the reactions were recorded for initial velocity determination.

Assay [1] deals with T2, human Factor VIIa (FVIIa) and human tissue factor (TF) (Homo sapiens, UniProt P08709).
T2 construct: human Factor VIIa (FVIIa)
As to the kind of experiment: Factor VII assay, hydrolysis of structure (11b) as proteolytic substrate. Format: biochemical. As to conditions: for kcat/KM (Factor VII): human FVIIa and TF, pH 8.0 Tris buffer, 37° C. The method, then:
as §1
For the Factor VII assay, pH 8.0 Tris buffer (0.05 M Tris, 5 mM CaCl2, 0.15 M NaCl, 0.1% TWEEN 20, 0.1% BSA) was used. 10 μl of 20 μM human Factor VIIa (FVIIa) and 22 μM of human tissue factor (TF) was brought to assay buffer to make 160 nM FVIIa and TF solutions, respectively. […] The initial 3 minutes reaction progress curves were recorded. […] The kcat/KM was, calculated from the slope and found to be 17,500 M^−1 s^−1.

Another assay concerns control plasma. As to the kind of experiment: prothrombin time (PT) in control plasma. The conditions noted are these: compared with PPACK. As for the experimental part: Then 200 μl of prewarmed (at 37° C. for ˜10 minutes) thromboplastin with calcium (from Sigma) was rapidly added into the plasma sample.
The subject of another assay is aPTT and TT. As to the kind of experiment: pharmacodynamic study in rats (aPTT and TT of plasma samples). Format: in vivo, rat. As to conditions: male Sprague Dawley rats, 4 mg/kg IV and 10 mg/kg PO. As for the experimental part: Specifically, a pharmacodynamic and pharmacokinetic study of structure (20b) was conducted in male Sprague Dawley rats. […] Groups of rats (n=3 or 4) were sacrificed and exsanguinated at 0.25, 0.5, 1, 2, 4 and 8 hours following dosing. Efficacy parameters, aPTT and TT; were measured for each plasma sample.

T2 sequence (P08709 213-466 limits assumed): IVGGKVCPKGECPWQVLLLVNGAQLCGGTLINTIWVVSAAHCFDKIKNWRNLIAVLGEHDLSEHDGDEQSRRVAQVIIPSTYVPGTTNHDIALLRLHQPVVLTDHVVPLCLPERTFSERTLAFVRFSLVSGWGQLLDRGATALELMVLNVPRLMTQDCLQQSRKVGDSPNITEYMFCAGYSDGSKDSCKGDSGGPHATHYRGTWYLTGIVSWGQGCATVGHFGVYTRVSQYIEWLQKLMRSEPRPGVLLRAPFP
T2 sequence (P08709 61-212 partner limits assumed): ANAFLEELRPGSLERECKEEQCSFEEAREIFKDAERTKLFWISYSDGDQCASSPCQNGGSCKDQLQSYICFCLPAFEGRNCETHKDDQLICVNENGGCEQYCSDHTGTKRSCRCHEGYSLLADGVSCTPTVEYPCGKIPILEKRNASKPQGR
T2 sequence (P13726 33-251 partner limits assumed): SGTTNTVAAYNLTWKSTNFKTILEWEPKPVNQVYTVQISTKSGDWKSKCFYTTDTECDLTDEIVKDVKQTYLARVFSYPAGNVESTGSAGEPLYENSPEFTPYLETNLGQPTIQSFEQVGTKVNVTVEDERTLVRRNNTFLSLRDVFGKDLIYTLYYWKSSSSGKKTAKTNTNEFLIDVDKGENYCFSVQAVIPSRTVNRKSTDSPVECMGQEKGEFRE

`NC(N)=NCCCC(NC(=O)C1CCCN1C(=O)C(N)Cc1ccccc1)C(=O)Nc1ccc([N+](=O)[O-])cc1` (centres unmarked) [(D)FPR-PNA, reference compound]: the “kcat/KM (thrombin)” value on bovine thrombin turned out to be 2.2e+07 M⁻¹ s⁻¹. Moreover, the “kcat/KM (Factor VII)” value in assay [1] is 12700 M⁻¹ s⁻¹.
Turning to `N=C(N)NCCC[C@H](NC(=O)[C@@H]1CCN2CC[C@@](N)(Cc3ccccc3)C(=O)N12)C(=O)Nc1ccc([N+](=O)[O-])cc1` [Structure (11b)], at bovine thrombin, the “kcat/KM (thrombin)” value was found to be 1.67e+07 M⁻¹ s⁻¹. For the same compound, the “Activity compared to the control (D)FPR-PNA, thrombin” value at bovine thrombin (ratio of kcat/KM to control) is 0.76. In addition, the “kcat/KM (Factor VII)” value in assay [1] is 17,500 M^−1 s^−1. For the same compound, the “Activity compared to the control (D)FPR-PNA, Factor VII” value in assay [1] (ratio of kcat/KM to control) worked out at 1.38.
With `N=C(N)NCCC[C@H](NC(=O)[C@@H]1CCN2CC[C@@](N)(Cc3ccccc3)C(=O)N12)C(=O)CCl` [Structure (13b)], the “time required to form clot (PT), in words” value in the assay with control plasma is on record as “comparable with PPACK”.
In the case of `N=C(N)NCCC[C@H](NC(=O)[C@@H]1CCN2CC[C@@](N)(Cc3ccccc3)C(=O)N12)C(=O)c1nc2ccccc2s1` [Structure (20b)], the “in vivo efficacy (aPTT and TT)” value in the assay with aPTT and TT is “in vivo efficacy”.

The values above are taken from US6699869B1, “β-sheet mimetics and use thereof as inhibitors of biologically active peptides or proteins” (Myriad Genetics Inc., priority 1995, dated 2004).
